Laboratory results reported in paper PMC9321930, “Modelling the Human Blood–Brain Barrier in Huntington Disease” (International Journal of Molecular Sciences, 2022).
Read-outs that look alike come from different tables or passages of the source. One block for each compound: values may come before it.

Columns and labels:
iBMEC_33Q [1] = experiment: TNFα treatment, inflammatory gene expression (qRT-PCR), iBMEC_33Q; type: cell-based, human; settings: 50 ng/mL TNFα, 48 h, versus untreated cells
Experimental: (§1) To evaluate the self-renewal capacity and the pluripotency as well as the trilineage differentiation potential, mRNA was subjected to the hPSC scorecard assay (Cat. A15872, Thermo Fisher, Monza, Italy) after RNA extraction from iPSC colonies with RNeasy mini kit (Cat. 74106, Qiagen, Hilden, Germany). cDNA was obtained with High-capacity cDNA reverse transcription kit (Cat. 4374966, Thermo Fisher, Monza, Italy). The expression of inflammatory genes after TNFα treatment was evaluated using the TaqMan™ Array Human Inflammation Panel (Cat. 4378722, Applied Biosystem, Foster City, CA, USA). qRT-PCR was performed in QuantStudio 12 K Flex (Thermo Fisher, Monza, Italy). The analysis of the hPSC score was conducted with the hPSC Score Card Panel software.
(§2) To mimic a neuroinflammatory condition, cells in transwells were treated with 50 ng/mL of TNFα for 48 h before RNA extraction.

iBMEC_71Q [2] = experiment: TNFα treatment, inflammatory gene expression (qRT-PCR), iBMEC_71Q; type: cell-based, human; settings: 50 ng/mL TNFα, 48 h, versus untreated cells
Experimental: as §1, §2

iBMEC_109Q [3] = experiment: TNFα treatment, inflammatory gene expression (qRT-PCR), iBMEC_109Q; type: cell-based, human; settings: 50 ng/mL TNFα, 48 h, versus untreated cells
Experimental: as §1, §2

all iBMECs = experiment: Inhibition of substrate transport by transporter inhibitors, all iBMECs; type: cell-based, human
Experimental: (§3) The measurement of TEER, transport studies, and the derivation of permeability coefficients were carried out as reported. In each filter, a paracellular marker (radiolabelled sucrose or LY) was added as internal control of the tightness of the monolayer. The amounts of radiotracer and fluorescent tracers were determined by liquid scintillation (Top Count-NXT, Microplate Scintillation and Luminescence counter from Perkin Elmer, Milan, Italy) and fluorescence spectrophotometry (SAFIRE TECAN, Microplate Fluorescence reader, Männedorf, Switzerland), respectively. In efflux and influx transport assays, before the addition of the compounds, filters were pre-incubated for 15 min at 37 °C with or without inhibitors and/or substrates: 2 µM elacridar (PGP inhibition), 2 µM of KO143 (BCRP inhibition), 10 µM JPH203 (LAT-1 inhibition), and 200 µM of phloretin (GLUT inhibition). Each test compound was assayed in triplicates. Transferrin from Human Serum, Alexa Fluor™ 594 Conjugate (T13343 Invitrogen™ from Thermo Fisher, Monza, Italy) was incubated (2.5 µM) in HBSS-20 mM Hepes pH 7.4 containing 1% BSA for 2 h, at 37 °C, and 5% CO2 and on ice at 4 °C. At the end of the incubation, aliquots from both compartments were collected and the fluorescent tracer was quantified.

iBMEC_33Q [4] = experiment: Transport assay (permeability) across iBMEC_33Q transwell BBB model; settings: for Permeability iBMEC_33Q: Table 1, compound alone, mean ± SE, n > 6, compounds marked ^a calculated from Ptotal
iBMEC_71Q [5] = experiment: Transport assay (permeability) across iBMEC_71Q transwell BBB model; settings: for Permeability iBMEC_71Q: Table 1, compound alone, mean ± SE, n > 6, compounds marked ^a calculated from Ptotal
iBMEC_109Q [6] = experiment: Transport assay (permeability) across iBMEC_109Q transwell BBB model; settings: for Permeability iBMEC_109Q: Table 1, compound alone, mean ± SE, n > 6, compounds marked ^a calculated from Ptotal
[7] = Table S4; cited from earlier work
GLUT = experiment: in vitro; settings: female, human
iBMECs 33Q = experiment: Receptor-mediated transcytosis of fluorescent transferrin, iBMEC 33Q; type: in vitro ADME, human; settings: basal compartment after 2 h, 2.5 µM, mean ± sd
Experimental: as §3

iBMECs 71Q = experiment: Receptor-mediated transcytosis of fluorescent transferrin, iBMEC 71Q; type: in vitro ADME, human; settings: for Transferrin transported: 71Q, basal compartment after 2 h, 2.5 µM, mean ± sd
Experimental: as §3

iBMECs 109Q = experiment: Receptor-mediated transcytosis of fluorescent transferrin, iBMEC 109Q; type: in vitro ADME, human; settings: for Transferrin transported: 109Q, basal compartment after 2 h, 2.5 µM, mean ± sd
Experimental: as §3

iBMEC_33Q [8] = test system: iBMEC_33Q
iBMEC_71Q [9] = test system: iBMEC_71Q
iBMEC_109Q [10] = test system: iBMEC_109Q
[11] = test system: rat cerebral microcirculation; settings: cited from earlier work
[12] = Transport assay (permeability) across iBMEC_33Q transwell BBB model; settings: female, human
[13] = Transport assay (permeability) across iBMEC_71Q transwell BBB model; settings: female, human
[14] = Transport assay (permeability) across iBMEC_109Q transwell BBB model; settings: female, human

Compound: TNFα
Upregulation of ICAM-1 expression after TNFα treatment (iBMEC_33Q [1]; 33Q): 9 fold
Upregulation of VCAM1 expression after TNFα treatment (iBMEC_33Q [1]; iBMEC 33Q): more than 40 fold
Upregulation of ICAM-1 expression after TNFα treatment (iBMEC_71Q [2]; 71Q): about 2 fold
Upregulation of VCAM1 expression after TNFα treatment (iBMEC_71Q [2]; iBMEC 71Q): more than 40 fold
Upregulation of ICAM-1 expression after TNFα treatment (iBMEC_109Q [3]; 109Q): about 2 fold
Upregulation of VCAM1 expression after TNFα treatment (iBMEC_109Q [3]; iBMEC_109Q): none

Compound: O=C(CCc1ccc(O)cc1)c1c(O)cc(O)cc1O [phloretin]
inhibition at 200 µM (all iBMECs; Homo sapiens, 200 µM phloretin, both directions (apical to basal and basal to apical), all iBMECs, read-out: Inhibition of glucose transport): 50 to 60%

Efflux Ratio (iBMEC_33Q [4]; 33Q, no inhibitor): 1.8
Permeability A-B (iBMEC_33Q [4]; 33Q, no inhibitor, mean ± SD): 4.1 ± 0.2 ×10^−6 cm/s
Permeability B-A (iBMEC_33Q [4]; 33Q, no inhibitor, mean ± SD): 7.5 ± 0.5 ×10^−6 cm/s
Permeability iBMEC_33Q (iBMEC_33Q [4]): 4.1 ± 0.2 ×10^−6 cm/s
Efflux Ratio (iBMEC_71Q [5]; 71Q, no inhibitor): 2.0
Permeability A-B (iBMEC_71Q [5]; 71Q, no inhibitor, mean ± SD): 3.3 ± 0.1 ×10^−6 cm/s
Permeability B-A (iBMEC_71Q [5]; 71Q, no inhibitor, mean ± SD): 6.8 ± 0.6 ×10^−6 cm/s
Permeability iBMEC_71Q (iBMEC_71Q [5]): 3.3 ± 0.1 ×10^−6 cm/s
Efflux Ratio (iBMEC_109Q [6]; 109Q, no inhibitor): 1.3
Permeability A-B (iBMEC_109Q [6]; 109Q, no inhibitor, mean ± SD): 7.2 ± 0.7 ×10^−6 cm/s
Permeability B-A (iBMEC_109Q [6]; 109Q, no inhibitor, mean ± SD): 9.0 ± 0.5 ×10^−6 cm/s
Permeability iBMEC_109Q (iBMEC_109Q [6]): 7.2 ± 0.7 ×10^−6 cm/s
Compound: N[C@@H](CCC(=O)O)C(=O)O [glutamate]

Compound: N=C(N)NCCC[C@H](N)C(=O)O [arginine]
Human Kp,uu,CSF [7]: 0.28

Compound: N[C@@H](Cc1ccc(O)c(O)c1)C(=O)O [L-DOPA]
Human Kp,uu,CSF [7]: 0.49

Compound: Nc1cc(COc2c(Cl)cc(C[C@H](N)C(=O)O)cc2Cl)c2oc(-c3ccccc3)nc2c1 [JPH203]
Reduction of leucine transport (all iBMECs; 10 µM JPH203, all models): about 80%

Compound: Cn1c(=O)c2c(ncn2C)n(C)c1=O [caffeine]
Human Kp,uu,CSF [7]: 1.00

Compound: O=C(O)c1cc(=O)c2ccccc2[nH]1 [KYNA, kynurenic acid]
Human Kp,uu,CSF [7]: 0.024

Compound: CN(Cc1cnc2nc(N)nc(N)c2n1)c1ccc(C(=O)N[C@@H](CCC(=O)O)C(=O)O)cc1 [methotrexate]
Human Kp,uu,CSF [7]: 0.02

Compound: CC(NC(C)(C)C)C(=O)c1cccc(Cl)c1 (stereo not drawn) [bupropion]
Human Kp,uu,CSF [7]: 1.11

Papp A→B (GLUT): 6.3 ×10⁻⁶ cm/s
Compound: OC[C@H]1OC(O)[C@H](O)[C@@H](O)[C@@H]1O (stereo partly drawn) [glucose]
Human Kp,uu,CSF [7]: 0.65

Compound: Transferrin: Transferrin from Human Serum, Alexa Fluor 594 Conjugate
Transferrin transported (iBMECs 33Q; 4°C): 2.8 ± 0.4 ng
Transferrin transported (iBMECs 33Q; 37°C): 4.1 ± 0.7 ng
Transferrin transported (iBMECs 71Q; 4°C): 3.7 ± 0.3 ng
Transferrin transported (iBMECs 71Q; 37°C): 7.3 ± 0.4 ng
Higher level of basal accumulation of transferrin (iBMECs 71Q; iBMEC_71Q versus healthy model): ~2 fold
Transferrin transported (iBMECs 109Q; 4°C): 4.0 ± 1.0 ng
Transferrin transported (iBMECs 109Q; 37°C): 49.0 ± 13.0 ng
Higher level of basal accumulation of transferrin (iBMECs 109Q; iBMEC_109Q versus healthy model): about 5 fold

Efflux Ratio (iBMEC_33Q [8]): 0.9
LY permeability, time course (iBMEC_33Q [8]): ≥ 0.5 ×10⁻⁶ cm/s
Permeability A-B (iBMEC_33Q [8]): 0.23 ± 0.02 ×10^−6 cm/s
Permeability B-A (iBMEC_33Q [8]): 0.21 ± 0.04 ×10^−6 cm/s
Permeability iBMEC_33Q, paracellular markers (iBMEC_33Q [8]): 2.3 ± 0.2 x10^-7 cm/s
Efflux Ratio (iBMEC_71Q [9]): 0.9
LY permeability, time course (iBMEC_71Q [9]): ≥ 0.5 ×10⁻⁶ cm/s
Permeability A-B (iBMEC_71Q [9]): 0.37 ± 0.03 ×10^−6 cm/s
Permeability B-A (iBMEC_71Q [9]): 0.34 ± 0.06 ×10^−6 cm/s
Permeability iBMEC_71Q, paracellular markers (iBMEC_71Q [9]): 3.7 ± 0.3 x10^-7 cm/s
Efflux Ratio (iBMEC_109Q [10]): 1.0
LY permeability, time course (iBMEC_109Q [10]): exceeded 5 × 10^−7 cm/s
Permeability A-B (iBMEC_109Q [10]): 0.70 ± 0.03 ×10^−6 cm/s
Permeability B-A (iBMEC_109Q [10]): 0.70 ± 0.1 ×10^−6 cm/s
Permeability iBMEC_109Q, paracellular markers (iBMEC_109Q [10]): 7.0 ± 0.3 x10^-7 cm/s
Compound: lucifer yellow
Permeability P in vivo [11]: 1 − 2 × 10^−7 cm/s

Compound: CN(C)CCCC1(c2ccc(F)cc2)OCc2cc(C#N)ccc21 (stereo not drawn) [citalopram]
Human Kp,uu,CSF [7]: 1.77

Permeability iBMEC_33Q (iBMEC_33Q [8]): 53.8 ± 6.7 ×10^−6 cm/s
Permeability iBMEC_71Q (iBMEC_71Q [9]): 53.2 ± 3.6 ×10^−6 cm/s
Permeability iBMEC_109Q (iBMEC_109Q [10]): 52.6 ± 5.7 ×10^−6 cm/s
Compound: CC(O)C(=O)O (stereo not drawn) [lactate]

Compound: NC(=O)N1c2ccccc2C=Cc2ccccc21 [carbamazepine]
Human Kp,uu,CSF [7]: 0.24

Compound: [D-Ala2]deltorphin-II
Permeability iBMEC_33Q (iBMEC_33Q [4]): 0.77 ± 0.08 ×10^−6 cm/s
Permeability iBMEC_71Q (iBMEC_71Q [5]): 0.92 ± 0.01 ×10^−6 cm/s
Permeability iBMEC_109Q (iBMEC_109Q [6]): 1.01 ± 0.02 ×10^−6 cm/s

Papp [12]: 18.6 ± 0.2 ×10⁻⁶ cm/s
Papp [13]: 20.9 ± 1 ×10⁻⁶ cm/s
Papp [14]: 27.7 ± 1.5 ×10⁻⁶ cm/s
Compound: O=C1NC(=O)C(c2ccccc2)(c2ccccc2)N1 [phenytoin]
Human Kp,uu,CSF [7]: 0.19

Compound: CC(C)C[C@H](N)C(=O)O [leucine]
Human Kp,uu,CSF [7]: 0.12

Papp [12]: 0.11 ± 0.01 ×10⁻⁶ cm/s
Papp [13]: 0.24 ± 0.02 ×10⁻⁶ cm/s
Papp [14]: 0.8 ± 0.01 ×10⁻⁶ cm/s
Compound: O=C1OC2(c3ccc(O)cc3Oc3cc(O)ccc32)c2ccccc21 [fluorescein]

Papp [12]: 25.8 ± 1.5 ×10⁻⁶ cm/s
Papp [13]: 21.4 ± 1.4 ×10⁻⁶ cm/s
Papp [14]: 30.4 ± 3 ×10⁻⁶ cm/s
Compound: N[C@@H](Cc1ccccc1)C(=O)O [phenylalanine]
Human Kp,uu,CSF [7]: 0.28
